Laboratory results reported in PubChem BioAssay (NCI).
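Protocol summary: plate cells (96-well), add compound at 5 concentrations, incubate 48 h, interpolate endpoints linearly. At the GI50, growth is halved. TGI is the concentration that stops growth completely.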

Legend:
Assay in all cases: inhibition of tumour cell growth, NCI panel, 48 h
HL-60(TB) leukemia = system: HL-60(TB) leukemia
HOP-62 NSCLC = system: HOP-62 NSCLC
HOP-92 NSCLC = system: HOP-92 NSCLC
K-562 leukemia = system: K-562 leukemia
NCI-H460 lung = system: NCI-H460 lung
SF-295 CNS = system: SF-295 CNS
SK-MEL-2 melanoma = system: SK-MEL-2 melanoma
SK-OV-3 ovarian = system: SK-OV-3 ovarian
SR leukemia = system: SR leukemia
SW-620 colon = system: SW-620 colon

SMILES	TGI (HL-60(TB) leukemia)	TGI (HOP-62 NSCLC)	TGI (HOP-92 NSCLC)	TGI (K-562 leukemia)	TGI (NCI-H460 lung)	TGI (SF-295 CNS)	TGI (SK-MEL-2 melanoma)	TGI (SK-OV-3 ovarian)	TGI (SR leukemia)	TGI (SW-620 colon)	GI50 (HL-60(TB) leukemia)	GI50 (HOP-62 NSCLC)	GI50 (HOP-92 NSCLC)	GI50 (K-562 leukemia)	GI50 (NCI-H460 lung)	GI50 (SF-295 CNS)	GI50 (SK-MEL-2 melanoma)	GI50 (SK-OV-3 ovarian)	GI50 (SR leukemia)	GI50 (SW-620 colon)
Cc1[nH]c(=O)nc2[nH][nH]c(=O)c12	> 100 µM	> 100 µM	> 100 µM	> 100 µM	> 100 µM	> 100 µM	> 100 µM	> 100 µM	> 100 µM	> 100 µM	–	–	–	–	–	–	–	–	–	–
CCOC(=O)CCC(=O)C1c2cccc(O)c2C(=O)c2c(O)cc(C)cc21 (stereo not given)	1.8 µM	2.21 µM	3.04 µM	10.9 µM	1.27 µM	0.878 µM	1.08 µM	2.01 µM	4.25 µM	2.9 µM	–	–	–	–	–	–	–	–	–	–
COC(=O)Nc1nc2ccc(C3(c4ccc(F)cc4)OCCO3)cc2[nH]1	0.765 µM	> 100 µM	58 µM	> 100 µM	> 36.8 µM	> 100 µM	> 100 µM	> 100 µM	> 100 µM	> 100 µM	0.242 µM	3.24 µM	0.268 µM	0.112 µM	0.344 µM	0.272 µM	0.427 µM	0.587 µM	0.122 µM	0.311 µM
O=C(CCc1nc(=S)[nH][nH]1)Nc1ccccc1Cl	> 100 µM	> 100 µM	> 100 µM	> 100 µM	> 100 µM	> 100 µM	> 100 µM	> 100 µM	> 100 µM	35.6 µM	–	–	–	–	–	–	–	–	–	–
Nc1ccccc1/C(O)=C1/CCOC1=O	> 100 µM	> 100 µM	> 100 µM	> 100 µM	> 100 µM	> 100 µM	> 100 µM	> 100 µM	> 100 µM	> 100 µM	–	–	–	–	–	–	–	–	–	–
CN(C)CCC1(C2=CCCC2)CC/C(=C\c2ccc(Cl)cc2)C1=O (stereo not given)	3.91 µM	32.7 µM	15.4 µM	> 23.2 µM	26.9 µM	20.8 µM	14.2 µM	19.6 µM	7.42 µM	24.2 µM	–	–	–	–	–	–	–	–	–	–
CCCC(CCC)NCC(O)c1cc(-c2ccc(C(F)(F)F)cc2)nc(C(F)(F)F)c1 (stereo not given)	3.97 µM	3.12 µM	2.87 µM	3.8 µM	3.4 µM	3.78 µM	3.92 µM	3.22 µM	3.27 µM	3.05 µM	2.11 µM	1.66 µM	1.43 µM	1.93 µM	1.77 µM	1.99 µM	2.27 µM	1.75 µM	1.4 µM	1.57 µM
COc1ccc(C2=C(Cl)c3cc(OC)c(OC)cc3C2Cl)cc1 (stereo not given)	18.1 µM	32.2 µM	30.3 µM	> 53.1 µM	27.4 µM	34.1 µM	26.3 µM	34.3 µM	> 100 µM	32.9 µM	–	–	–	–	–	–	–	–	–	–
CC/C=C\C[C@H](O)C/C=C1/C(=O)C=C[C@@H]1C/C=C\CCCC(=O)OC	7.07 µM	5.15 µM	8.67 µM	21.7 µM	11.2 µM	5.58 µM	4.2 µM	15.4 µM	6.18 µM	11.3 µM	1.74 µM	1.48 µM	3.22 µM	0.732 µM	3.26 µM	2.26 µM	1.84 µM	5.37 µM	0.403 µM	0.784 µM
